# Test results as given in paper PMC10238281 (International Journal of Biological Macromolecules, 2023).
# Experiments:
# [1] = test system: SARS2-S pseudovirus; assay: microbe, parasite or virus in culture; format: cell-based, SARS-CoV-2; conditions: for activity at 2 µM: A549-ACE2, 72 h, read-out: Luciferase ratio (%), 2 μM
# [2] = target: spike RBD protein (Severe acute respiratory syndrome coronavirus 2, UniProt P0DTC2); format: binding, SARS-CoV-2
# [3] = Tissue distribution / pharmacokinetics in female ICR mice; format: in vivo
structure (smiles),measurement,setting,value
"CN1CCN(c2ccc(-c3cnc4[nH]cc(C(=O)c5ccc(F)cc5)c4c3)cc2)CC1 [ASM-2, (4-Fluorophenyl)(5-(4-(4-methylpiperazin-1-yl)phenyl)-1H-pyrrolo[2,3-b]pyridin-3-yl)methanone]",activity at 2 µM,[1]; Pseudovirus,< 25%
"O=C(c1cccc(F)c1)c1c[nH]c2ncc(-c3ccc(N4CCNCC4)nc3)cc12 [ASM-9, (3-Fluorophenyl)(5-(6-(piperazin-1-yl)pyridin-3-yl)-1H-pyrrolo[2,3-b]pyridin-3-yl)methanone]",activity at 2 µM,[1]; Pseudovirus,< 25%
"COc1ccc(C(=O)c2c[nH]c3ncc(-c4ccc(N5CCNCC5)nc4)cc23)cc1 [ASM-4, (4-Methoxyphenyl)(5-(6-(piperazin-1-yl)pyridin-3-yl)-1H-pyrrolo[2,3-b]pyridin-3-yl)methanone]",activity at 2 µM,[1]; Pseudovirus,< 25%
"O=C(CCCCC1SCC2NC(=O)NC21)NCCCCCC(=O)N1CCN(c2ccc(-c3cnc4[nH]c(/C=C/c5ccccc5O)nc4c3)cn2)CC1 (centres unmarked) [Biotin-G7a, (E)-N-(6-(4-(5-(2-(2-Hydroxystyryl)-3H-imidazo[4,5-b]pyridin-6-yl)pyridin-2-yl)piperazin-1-yl)-6-oxohexyl)-5-(2-oxohexahydro-1H-thieno[3,4-d]imidazol-4-yl)pentanamide]",Binding / pull-down of spike RBD protein by streptavidin IP,[2],retained the ability to bind spike RBD protein
"O=C(c1ccc(F)cc1)c1c[nH]c2ncc(-c3ccc(N4CCNCC4)nc3)cc12 [ASM-7, (4-Fluorophenyl)(5-(6-(piperazin-1-yl)pyridin-3-yl)-1H-pyrrolo[2,3-b]pyridin-3-yl)methanone]",Fold advantage of EC50 over G7a,[1],20 fold
same,EC50,"[1]; Pseudovirus, A549-ACE2, read-out: EC50, inhibition of SARS2-S pseudovirus entry",450 nM
same,"Organ distribution (heart, liver, spleen, lung, kidney, brain)","[3]; female ICR mice, 1 h after oral administration (30 mg/kg)",favorable targetability towards the lung
same,Blood versus lung concentration,"[3]; female ICR mice, intravenous administration, 5 min",concentration of ASM-7 in the lung was substantially higher
same,Detection in the lung after oral administration,"[3]; female ICR mice, oral, 4 h",could still be detected in the lung
same,concentration at 5 min,"[3]; female, ICR, mouse, lung, iv, 3 mg/kg",30000 ng/g
"O=C(CCCCC1SCC2NC(=O)NC21)NCCCCCC(=O)N1CCN(c2ccc(-c3cnc4[nH]cc(C(=O)c5ccc(F)cc5)c4c3)cn2)CC1 (centres unmarked) [Biotin-ASM-7, N-(6-(4-(5-(3-(4-Fluorobenzoyl)-1H-pyrrolo[2,3-b]pyridin-5-yl)pyridin-2-yl)piperazin-1-yl)-6-oxohexyl)-5-(2-oxohexahydro-1H-thieno[3,4-d]imidazol-4-yl)pentanamide]",Binding / pull-down of spike RBD protein by streptavidin IP,[2],could pull down the spike RBD protein
